Results as given in patent US20200405697A1, “Antitumor Agent” (Taiho Pharmaceutical Co., Ltd, priority 2017, published 2020).

Test system: MV-4-11 (Human blood cancer cell line)
Test: Effect of combination of sulfonamide compound and other antitumor agent (CellTiter-Glo, combination index): MV-4-11
[1] = Example Compound 1 121 nM + Cytarabine 116 nM, molar ratio 1:0.9614
[2] = Example Compound 1 121 nM + Guadecitabine 11.9 nM, molar ratio 1:0.09807
[3] = Example Compound 1 182 nM + Cytarabine 175 nM, molar ratio 1:0.9614
[4] = Example Compound 1 182 nM + Decitabine 50.2 nM, molar ratio 1:0.2758
[5] = Example Compound 1 182 nM + Fludarabine nucleoside 4110 nM, molar ratio 1:22.56
[6] = Example Compound 1 182 nM + Guadecitabine 17.8 nM, molar ratio 1:0.09807
[7] = Example Compound 1 273 nM + Decitabine 75.3 nM, molar ratio 1:0.2758
[8] = Example Compound 1 273 nM + Fludarabine nucleoside 6160 nM, molar ratio 1:22.56
[9] = Example Compound 1 273 nM + Guadecitabine 26.8 nM, molar ratio 1:0.09807
[10] = Example Compound 1 409 nM + Cytarabine 393 nM, molar ratio 1:0.9614
[11] = Example Compound 1 409 nM + Decitabine 113 nM, molar ratio 1:0.2758
[12] = Example Compound 1 409 nM + Guadecitabine 40.1 nM, molar ratio 1:0.09807
[13] = Example Compound 1 613 nM + Decitabine 169 nM, molar ratio 1:0.2758
[14] = Example Compound 1 613 nM + Decitabine 589 nM, molar ratio 1:0.2758
[15] = Example Compound 1 613 nM + Guadecitabine 60.1 nM, molar ratio 1:0.09807
[16] = Example Compound 1 920 nM + Decitabine 254 nM, molar ratio 1:0.2758
[17] = Example Compound 1 920 nM + Guadecitabine […], molar ratio 1:0.09807

Protocol: Each cell line was seeded at 90 L/well to a 96-well culture plate (Thermo Fisher Scientific, Inc.) according to the above tables. The cell-seeded plate was cultured in an incubator set to 37° C. and 500 CO2. On the day following seeding, varying concentrations of the sulfonamide compound and the other antitumor agent were added in combination to the cells. […] The serial dilutions of each compound, or DW was added at 5μL/well to the plate such that each compound and DW, or the sulfonamide compound and the other antitumor agent were combined. […] The plate after the addition was cultured at 37° C. for 3 days under 5% CO2 conditions.
Three days later, CellTiter-Glo(R) 2.0 Reagent (Promega Corporation) was added at 100 μL/well, and the amount of luminescence was measured using a plate reader EnSpire(R) Multimode Plate Reader (PerkinElmer Co., Ltd.).
An average value from 3 wells was calculated as to each drug condition from the obtained data, and cell survival rate normalized against control wells supplemented with the vehicle (DW) was calculated. A Fa (fractional inhibition) value was calculated by subtracting the cell survival rate from 1.

Question: `Cc1ccc(F)c([C@@H](C)[C@H](NS(=O)(=O)c2ccc(Br)cc2C(N)=O)c2n[nH]c(=O)o2)c1C` [Example 1, 5-bromo-2-(N-((1 S,2R)-2-(6-fluoro-2,3-dimethylphenyl)-1-(5-oxo-4,5-dihydro-1,3,4-oxadiazol-2-yl)propyl)sulfamoyl)benzamide] was tested. Which CI value [1] did it give?
Answer: 0.683

Question: And the Fa value [1]?
Answer: 0.1611

Question: And the CI value [2]?
Answer: 0.706

Question: What about the Fa value [2] of the same compound?
Answer: 0.2186

Question: What about the CI value [3] of the same compound?
Answer: 0.603

Question: And the Fa value [3]?
Answer: 0.4508

Question: What about the CI value [4] of the same compound?
Answer: 0.643

Question: And the Fa value [4]?
Answer: 0.3873

Question: And the CI value [5]?
Answer: 0.783

Question: What about the Fa value [5] of the same compound?
Answer: 0.1868

Question: And the CI value [6]?
Answer: 0.741

Question: And the Fa value [6]?
Answer: 0.3225

Question: What about the CI value [7] of the same compound?
Answer: 0.680

Question: What about the Fa value [7] of the same compound?
Answer: 0.5342

Question: What about the CI value [8] of the same compound?
Answer: 0.592

Question: And the Fa value [8]?
Answer: 0.8795

Question: What about the CI value [9] of the same compound?
Answer: 0.705

Question: What about the Fa value [9] of the same compound?
Answer: 0.5192

Question: And the CI value [10]?
Answer: 0.538

Question: And the Fa value [10]?
Answer: 0.9443

Question: What about the CI value [11] of the same compound?
Answer: 0.667

Question: What about the Fa value [11] of the same compound?
Answer: 0.7570

Question: What about the CI value [12] of the same compound?
Answer: 0.658

Question: And the Fa value [12]?
Answer: 0.7788

Question: And the CI value [13]?
Answer: 0.672

Question: And the Fa value [13]?
Answer: 0.9292

Question: And the CI value [14]?
Answer: 0.419

Question: And the Fa value [14]?
Answer: 0.9960

Question: And the CI value [15]?
Answer: 0.671

Question: And the Fa value [15]?
Answer: 0.9347

Question: And the CI value [16]?
Answer: 0.666

Question: And the Fa value [16]?
Answer: 0.9900

Question: And the CI value [17]?
Answer: 0.639

Question: What about the Fa value [17] of the same compound?
Answer: 0.9921
